# How the values were obtained:
# HIV-1NL4-3 [1] = test: In vitro selection of resistant HIV-1 variants in MT-4 cells; type: cell-based
# Excerpt: MT-4 cells (10^5/ml) were exposed to HIV-1NL4-3 (500 TCID50) and cultured in the presence of compounds at an initial concentration of its EC50 value. Viral replication was monitored by the determination of the amount of p24 produced by MT-4 cells. The supernatants were harvested on day 7 and were used to infect fresh MT-4 cells for the next round of culture in the presence of increasing concentrations of each compound. Proviral DNAs obtained from the lysates of infected cells were subjected to sequencing. This selection procedure was carried out until the drug concentration reached 5 μM as previously described[20]–[22]).
# HIV-1NL4-3 [2] = test: Viral growth kinetics in MT-4 cells (p24); type: cell-based; conditions: as low as 0.01 µM, 7 days
# Method: (§1) The GRL-09510-resistant variant at passage 36 was propagated in fresh MT-4 cells without GRL-09510 for 7 days, and aliquoted HIV-1_9510 ^R P36 viral stocks were stored at −80 °C. MT-4 cells (3.2 × 10^5) were exposed to the HIV-1_9510 ^R P36 or wild-type HIV-1NL4-3 preparation containing 10 ng/ml p24 in 6-well plates for 3 hours, and the infected MT-4 cells were washed with fresh medium, divided into 4 fractions and each cultured with or without GRL-09510 (final concentration of MT-4 cells 10^4/ml, and drug concentrations 0, 0.01, 0.1 and 1 μΜ). The amounts of p24 were measured every two days for up to 7 days.
# HIV-1_9510 ^R P36 = test: Viral growth kinetics in MT-4 cells (p24); type: cell-based
# Method: as §1
# HIV-2ROD = test: microbe, parasite or virus in culture; type: cell-based
# Method: (§2) The susceptibility of HIV-1LAI or HIV-2ROD to various compounds was determined as previously described[20]–[22]. Briefly, MT-2 cells (10^4/ml) were exposed to 100 TCID50 of HIV-1LAI or HIV-2ROD in the presence or absence of various concentrations of compounds in 96-well plates and were incubated at 37 °C for 7 days. After incubation, 100 μl of the medium was removed from each well, 3-(4,5-dimetylthiazol-2-yl)-2,5-diphenyltetrazolium bromide (MTT) solution (10 μl, 7.5 mg/ml in PBS) was added to each well, followed by incubation at 37 °C for 2 h. […] To determine the sensitivity of clinically isolated HIV-1s to compounds, PHA-PBMC (10^6/ml) were exposed to 50 TCID50 of each HIV-1 and cultured in the presence or absence of various concentrations of compounds in 10-fold serial dilutions in 96-well plates. In determining the drug-susceptibility of certain laboratory HIV-1 strains, MT-4 cells were employed as target cells as previously described[23],[24]. MT-4 cells (10^5/ml) were exposed to 100 TCID50 of drug-resistant HIV-1s in the presence or absence of various concentrations of compounds and were incubated at 37 °C. On day 7, the supernatants were harvested and the amounts of p24 were determined by using a fully-automated chemiluminescent enzyme immunoassay system (Lumipulse f: Fujirebio, Tokyo)[35]–[37]. […] All assays were performed in duplicate, and EC50 shown in this report represent average values of two to four independent experiments. PHA-PBMCs were derived from a single donor in each independent experiment. The research protocols described in the present study were carried out in accordance with relevant guidelines and regulations, and were approved in Ethics Committee for Epidemiological and General Research at the Faculty of Life Sciences, Kumamoto University.
# HIVMDR strains = test: p24 production inhibition in PHA-PBMC, summary over HIVMDR strains; type: cell-based, HIV-1; conditions: Human immunodeficiency virus 1, range over clinical HIVMDR isolates, read-out: EC50 values against HIVMDR
# Method: (§3) The susceptibility of HIV-1LAI or HIV-2ROD to various compounds was determined as previously described[20]–[22]. Briefly, MT-2 cells (10^4/ml) were exposed to 100 TCID50 of HIV-1LAI or HIV-2ROD in the presence or absence of various concentrations of compounds in 96-well plates and were incubated at 37 °C for 7 days. After incubation, 100 μl of the medium was removed from each well, 3-(4,5-dimetylthiazol-2-yl)-2,5-diphenyltetrazolium bromide (MTT) solution (10 μl, 7.5 mg/ml in PBS) was added to each well, followed by incubation at 37 °C for 2 h. […] To determine the sensitivity of clinically isolated HIV-1s to compounds, PHA-PBMC (10^6/ml) were exposed to 50 TCID50 of each HIV-1 and cultured in the presence or absence of various concentrations of compounds in 10-fold serial dilutions in 96-well plates. In determining the drug-susceptibility of certain laboratory HIV-1 strains, MT-4 cells were employed as target cells as previously described[23],[24]. MT-4 cells (10^5/ml) were exposed to 100 TCID50 of drug-resistant HIV-1s in the presence or absence of various concentrations of compounds and were incubated at 37 °C. On day 7, the supernatants were harvested and the amounts of p24 were determined by using a fully-automated chemiluminescent enzyme immunoassay system (Lumipulse f: Fujirebio, Tokyo)[35]–[37]. […]
# [3] = test system: HIV-1ME46 (subtype B, X4/R5); test: p24 production inhibition in PHA-PBMC; type: cell-based; conditions: Human immunodeficiency virus 1, PHA-PBMC, p24 Gag production
# Method: as §2
# HIV-1MDR/B = test: p24 production inhibition in PHA-PBMC; type: cell-based
# Method: as §2
# [4] = test system: HIV-1ERS104pre (wild-type); test: p24 production inhibition in PHA-PBMC; type: cell-based; conditions: Human immunodeficiency virus 1, PHA-PBMC, p24 Gag production
# Method: as §2
# HIV-1MDR/C = test: p24 production inhibition in PHA-PBMC; type: cell-based
# Method: as §2
# HIV-1MDR/G = test: p24 production inhibition in PHA-PBMC; type: cell-based
# Method: as §2
# HIV-1MDRmix DRV ^R 20P = test: p24 production inhibition in PHA-PBMC; type: cell-based
# Method: as §2
# HIV-1BaL (subtype B, R5) = test: p24 production inhibition in PHA-PBMC; type: cell-based; conditions: Human immunodeficiency virus 1, PHA-PBMC, p24 Gag production
# Method: as §2
# HIV-1MDR/TM = test: p24 production inhibition in PHA-PBMC; type: cell-based
# Method: as §2
# [5] = test system: HIV-192UG029 (subtype A, X4); test: p24 production inhibition in PHA-PBMC; type: cell-based, HIV-1; conditions: Human immunodeficiency virus 1, read-out: EC50 HIV-192UG029 (subtype A, X4)
# Method: as §2
# [6] = test system: HIV-1NL4-3 variants selected with ATV, LPV and APV; test: p24 assay in MT-4 cells, summary over PI-selected variants; type: cell-based
# Method: as §3
# HIV-1I84V = test: p24 assay in MT-4 cells, recombinant clone; type: cell-based; conditions: Human immunodeficiency virus 1, MT4
# Method: as §2
# (§4) To generate HIV-1 clones carrying the desired AA substitutions, site-directed mutagenesis was performed with a QuikChange site-directed mutagenesis kit (Stratagene, La Jolla, CA), and the AA substitution-containing genomic fragments were introduced into pHIV-1NL4-3Sma, which had been created to have a SmaI site by changing two nucleotides (2590 and 2593) of pHIV-1NL4-3.
# HIV-1L10F = test: p24 assay in MT-4 cells, recombinant clone; type: cell-based; conditions: Human immunodeficiency virus 1, MT4
# Method: as §2, §4
# HIV-1T91A = test: p24 assay in MT-4 cells, recombinant clone; type: cell-based; conditions: Human immunodeficiency virus 1, MT4
# Method: as §2, §4
# HIV-1I47V = test: p24 assay in MT-4 cells, recombinant clone; type: cell-based; conditions: Human immunodeficiency virus 1, MT4
# Method: as §2, §4
# [7] = compared to EC50 for HIV-1ERS104pre
# [8] = compared to HIV-1WT/ERS104pre, Supplemental Table 4
smiles,measurement,setting,value
COc1ccc(S(=O)(=O)N(CC(C)C)CC(O)C(Cc2ccccc2)NC(=O)OC2C3COC4OCC2C4C3)cc1 (centres unmarked) [GRL-09510],selection concentration reached after 24 passages,HIV-1NL4-3 [1]; HIV-1NL4-3 first exposed to 0.003 µM,0.105 µM
same,concentrations in which the virus began continuously failing to propagate,"HIV-1NL4-3 [1]; at around passage 30, selection discontinued at passage 37",> 0.27 µM
same,fold greater selection concentration than the initial concentration after 24 passages,HIV-1NL4-3 [1]; initial 0.003 µM,35 fold
same,growth of HIV-1NL4-3 in the presence of drug,HIV-1NL4-3 [2],failed to grow
same,replication of HIV-1_9510 ^R P36 in the presence of drug,HIV-1_9510 ^R P36; 1 µM,completely suppressed
same,growth of HIV-1_9510 ^R P36 in the presence of drug,"HIV-1_9510 ^R P36; 0.01 and 0.1 µM, 7-day culture",propagated
same,EC50,"HIV-2ROD; MT-2 cells, 100 TCID50, MTT assay, read-out: EC50 Against HIV-2ROD",1.8 ± 0.1 nM
same,Selectivity Index (CC50/EC50) MT2/HIV-2ROD,HIV-2ROD; ratio of CC50 to EC50 against HIV-2ROD,"21,667"
same,EC50,HIVMDR strains,3.2 to 4 nM
same,EC50,[3],1.2 ± 0.2 nM
same,EC50,"HIV-1MDR/B; PHA-PBMC, p24 Gag production",3.7 ± 0.1 nM
same,fold change of EC50 HIV-1MDR/B,HIV-1MDR/B; [7],1
same,EC50,[4],3.5 ± 0.1 nM
same,EC50,"HIV-1MDR/C; Human immunodeficiency virus 1, PHA-PBMC, p24 Gag production",3.2 ± 0.6 nM
same,fold change of EC50 HIV-1MDR/C,HIV-1MDR/C; [7],1
same,EC50,"HIV-1MDR/G; PHA-PBMC, p24 Gag production",3.3 ± 1.4 nM
same,fold change of EC50 HIV-1MDR/G,HIV-1MDR/G; [7],1
same,fold change in EC50 HIV-1MDR/G,HIV-1MDR/G; [8],1
same,fold more effective than DRV against HIV-1DRV ^R 20P,"HIV-1MDRmix DRV ^R 20P; PHA-PBMC, p24",12 fold
same,fold change of EC50 HIV-1MDRmix DRV ^R 20P,HIV-1MDRmix DRV ^R 20P; [7],7
same,fold change in EC50 HIV-1MDRmixDRVR20P,HIV-1MDRmix DRV ^R 20P; [8],7
same,EC50,"HIV-1MDRmix DRV ^R 20P; read-out: EC50 HIV-1MDRmix DRV ^R 20P, PHA-PBMC, p24 Gag production",25 ± 1 nM
same,EC50,"HIV-1BaL (subtype B, R5)",3.1 ± 0.4 nM
same,EC50,"HIV-1MDR/TM; PHA-PBMC, p24 Gag production",4 ± 0.6 nM
same,fold change of EC50 HIV-1MDR/TM,HIV-1MDR/TM; [7],1
same,EC50,[5],2.7 ± 0.1 nM
same,EC50,"[6]; Human immunodeficiency virus 1, MT4, MT-4 cells, variants selected with up to 5 µM ATV, LPV, APV, read-out: EC50 against PI-selected HIV-1NL4-3 variants",3.7 to 4.8 nM
same,fold-differences of EC50 against PI-selected variants,[6]; compared to against HIV-1NL4-3,1~2
same,EC50,HIV-1I84V,3.3 ± 0.3 nM
same,EC50,HIV-1L10F,4.4 ± 0.2 nM
same,EC50,HIV-1T91A,3.3 ± 0.4 nM
same,EC50,HIV-1I47V,3.6 ± 0.5 nM

# Source: publication PMC5613016, “GRL-09510, a Unique P2-Crown-Tetrahydrofuranylurethane -Containing HIV-1 Protease Inhibitor, Maintains Its Favorable Antiviral Activity against Highly-Drug-Resistant HIV-1 Variants in vitro” (Scientific Reports, 2017)
